Reference: US11090364B2, “Conjugates of a pharmaceutical agent and a moiety capable of binding to a glucose sensing protein” (SANOFI, priority 2016, dated 2021)

Assays:
erythrocytes = experiment: Erythrocyte dialysis assay (6-NBD-Glc, Rapid Equilibrium Dialysis); type: binding, rat; details: for Fluorescence intensity in buffer compartiment, 1:1 Dilution k^off / Fluorescence intensity in buffer compartiment, 1:1 Dilution k^on: 6-NBD-Glc 25 μM; for Fluorescence intensity in buffer compartiment, 6-NBD-Glc [50 μM]: absence of glucose
From the text: 3. Erythrocyte Dialysis Assay
Here 6-NBD-Glc or alternatively 2-NBD-Glc was used in dialysis based competition experiments.
Freshly isolated heparinized rat blood samples were immideately diluted (1:5) in PBS buffer to generate a stable stock solution. This stock solution was further diluted (1:1 or 1:3) for the following dialysis experiments in Rapid Equilibrium Dialysis (RED) devices (Thermo Scientific Pierce).
The aforementioned stock solution was further diluted (1:1 or 1:3 respectively) and added to the dialysis compartiment of a RED device. In parallel stock solution was diluted (1:1) with buffer containing 6 NBD Glc (25 μM).
Dialyses was started by addition of 6 NBD Glc (25 μM) in PBS Buffer (k^on) or pure PBS buffer (ko^off) respectively into the buffer compartiment. Aliquots (20 μl) were taken after defined time intervals from the buffer compartiment and fluorescence was measured in a UV plate reader (Thermovarioskan, Thermo).
As a control, free diffusion of 6-NBD-Glc (25 μM) in PBS buffer vs pure buffer was measured.
Glucose dependency was determined following the protocol described above, comparing the following solutions: 6 NBD-Glc (100 μM), 6 NBD-Glucose (100 μM)+Glucose 20 mM. Data are shown in the next table
Example 102 was investigated in a competition experiment following the same protocol using a 6-NBD-Glc solution (100 μM) in comparison to 6 NBD-Glucose (100 μM)+Example 102 (50 μM).

HepG2 cells = experiment: HepG2 assay: 14C 2-deoxy-D-glucose transport into HepG2 cells; type: cell-based; details: Homo sapiens, test compound 100 μM
Method: For measurement of ^14C 2-deoxy-D-glucose transport into HepG2 cells, cells were seeded in collagen treated 96-well plates (Cytostar-T Plates Perkin Elmer, 40.000 cells/200 μ/well) in medium complete (MEM W/GLUT-I, EARLES (Gibco #41090) /NEAA/PS/10% FCS) and grown for 48 hours. After starvation for 2 hours with MEM W/GLUT-I, EARLES (Gibco #41090)/NEAA/no serum 100 μl/well and washing twice with 200 μL KRB buffer, cells were stimulated in a dose dependent manner by adding 20 μL of test compound dilution 0-750 μM (7.5 times higher concentration than final) or 20 μL of 188 μM Cytochalasin B solution as negative control, to 80 μL KRB buffer and incubated for 30 minutes. After compound stimulation, the transport of ^14C 2-deoxy-D-glucose was started by adding of 50 μL ^14C 2-deoxy-D-glucose solution (250 μM 2-deoxy-D-glucose cold and 15 μM ^14C 2-deoxy-D-glucose 0.13 μCi/well) for 20 minutes. Transport was stopped by adding 50 μL/well 40 μM Cytochalasin B solution. Plates were measured in a 96-well Wallac Microbeta device. The cpm (counts per minute) values were used to determine the % inhibition values for the test compounds within each experiment, which then are averaged over the number of experiments performed.

O=[N+]([O-])c1ccc(NC[C@H]2OC(O)[C@H](O)[C@@H](O)[C@@H]2O)c2nonc12 (stereo partly shown) [Example 6-NBD-Glc, 6-(N-(7-Nitrobenz-2-oxa-1,3-diazol-4-yl)amino)-6-Deoxyglucose]
Fluorescence intensity in buffer compartiment, 1:1 Dilution k^off (erythrocytes; 0 min): 0 AU
Fluorescence intensity in buffer compartiment, 1:1 Dilution k^on (erythrocytes; 0 min): 55 AU
Fluorescence intensity in buffer compartiment, NBD-Glc [50 μM] + Glc [10 mM] (erythrocytes; 0 min): 0 AU
Fluorescence intensity in buffer compartiment, 6-NBD-Glc [50 μM] (erythrocytes; 0 min): 0 AU
Fluorescence intensity in buffer compartiment, NBD-Glc [50 μM] + Glc [10 mM] (erythrocytes; 15 min): 7.2 AU
Fluorescence intensity in buffer compartiment, 6-NBD-Glc [50 μM] (erythrocytes; 15 min): 7.5 AU
Fluorescence intensity in buffer compartiment, 1:1 Dilution k^off (erythrocytes; 30 min): 3.4 AU
Fluorescence intensity in buffer compartiment, 1:1 Dilution k^on (erythrocytes; 30 min): 50.6 AU
Fluorescence intensity in buffer compartiment, NBD-Glc [50 μM] + Glc [10 mM] (erythrocytes; 30 min): 11.9 AU
Fluorescence intensity in buffer compartiment, 6-NBD-Glc [50 μM] (erythrocytes; 30 min): 10.6 AU
Fluorescence intensity in buffer compartiment, 1:1 Dilution k^off (erythrocytes; 60 min): 6.5 AU
Fluorescence intensity in buffer compartiment, 1:1 Dilution k^on (erythrocytes; 60 min): 45.1 AU
Fluorescence intensity in buffer compartiment, NBD-Glc [50 μM] + Glc [10 mM] (erythrocytes; 60 min): 17 AU
Fluorescence intensity in buffer compartiment, 6-NBD-Glc [50 μM] (erythrocytes; 60 min): 11.1 AU
Fluorescence intensity in buffer compartiment, 1:1 Dilution k^off (erythrocytes; 90 min): 12 AU
Fluorescence intensity in buffer compartiment, 1:1 Dilution k^on (erythrocytes; 90 min): 33 AU
Fluorescence intensity in buffer compartiment, NBD-Glc [50 μM] + Glc [10 mM] (erythrocytes; 90 min): 18.5 AU
Fluorescence intensity in buffer compartiment, 6-NBD-Glc [50 μM] (erythrocytes; 90 min): 14.9 AU
Fluorescence intensity in buffer compartiment, 1:1 Dilution k^off (erythrocytes; 120 min): 16.1 AU
Fluorescence intensity in buffer compartiment, 1:1 Dilution k^on (erythrocytes; 120 min): 34 AU
Fluorescence intensity in buffer compartiment, NBD-Glc [50 μM] + Glc [10 mM] (erythrocytes; 120 min): 20.3 AU
Fluorescence intensity in buffer compartiment, 6-NBD-Glc [50 μM] (erythrocytes; 120 min): 15.8 AU
Fluorescence intensity in buffer compartiment, NBD-Glc [50 μM] + Glc [10 mM] (erythrocytes; 180 min): 22.5 AU
Fluorescence intensity in buffer compartiment, 6-NBD-Glc [50 μM] (erythrocytes; 180 min): 16 AU
Free concentration of 6-NBD-Glc in presence of Glc [10 mM] (erythrocytes; Glc 10 mM versus absence of glucose): increased

OC[C@H]1OC(O)[C@H](n2cc(-c3ccccc3)nn2)[C@@H](O)[C@@H]1O (stereo partly drawn) [Example 55, (3R,4R,5S,6R)-6-(Hydroxymethyl)-3-(4-phenyltriazol-1-yl)tetrahydropyran-2,4,5-triol]
inhibition at 100 µM (HepG2 cells): 12.4%

Cc1ccc(-c2cn([C@H]3C(O)O[C@H](CO)[C@@H](O)[C@@H]3O)nn2)cc1 (stereo partly drawn) [Example 56, (3R,4R,5S,6R)-6-(Hydroxymethyl)-3-[4-(p-tolyl)triazol-1-yl]tetrahydropyran-2,4,5-triol]
inhibition at 100 µM (HepG2 cells): 21.1%

OC[C@H]1OC(O)[C@H](n2cc(CCCc3ccccc3)nn2)[C@@H](O)[C@@H]1O (stereo partly drawn) [Example 57, (3R,4R,5S,6R)-6-(Hydroxymethyl)-3-[4-(3-phenylpropyl)triazol-1-yl]tetrahydropyran-2,4,5-triol]
inhibition at 100 µM (HepG2 cells): 24.1%

COC(=O)c1ccc(-c2cn([C@H]3C(O)O[C@H](CO)[C@@H](O)[C@@H]3O)nn2)cc1 (stereo partly drawn) [Example 58, Methyl 4-[1-[(3R,4R,5S,6R)-2,4,5-trihydroxy-6-(hydroxymethyl)tetrahydropyran-3-yl]triazol-4-yl]benzoate]
inhibition at 100 µM (HepG2 cells): 20%

CN(Cc1ccccc1)Cc1cn([C@H]2C(O)O[C@H](CO)[C@@H](O)[C@@H]2O)nn1 (stereo partly drawn) [Example 59, (3R,4R,5S,6R)-3-[4-[[Benzyl(methyl)amino]methyl]triazol-1-yl]-6-(hydroxymethyl)tetrahydropyran-2,4,5-triol]
inhibition at 100 µM (HepG2 cells): 7.56%

COc1ccc2cc(-c3cn([C@H]4C(O)O[C@H](CO)[C@@H](O)[C@@H]4O)nn3)ccc2c1 (stereo partly drawn) [Example 60, (3R,4R,5S,6R)-6-(Hydroxymethyl)-3-[4-(6-methoxy-2-naphthyl)triazol-1-yl]tetrahydropyran-2,4,5-triol]
inhibition at 100 µM (HepG2 cells): 14.8%

Cc1ccc(-c2nc(C)c(-c3cn([C@H]4C(O)O[C@H](CO)[C@@H](O)[C@@H]4O)nn3)c(Cl)n2)cc1 (stereo partly drawn) [Example 61, (3R,4R,5S,6R)-3-[4-[4-Chloro-6-methyl-2-(p-tolyl)pyrimidin-5-yl]triazol-1-yl]-6-(hydroxymethyl)tetrahydropyran-2,4,5-triol]
inhibition at 100 µM (HepG2 cells): 9.42%

O=[N+]([O-])c1ccc(NCc2cn([C@H]3C(O)O[C@H](CO)[C@@H](O)[C@@H]3O)nn2)c2nonc12 (stereo partly drawn) [Example 63, (3R,4R,5S,6R)-6-(Hydroxymethyl)-3-[4-[[(4-nitro-2,1,3-benzoxadiazol-7-yl)amino]methyl]triazol-1-yl]tetrahydropyran-2,4,5-triol]
inhibition at 100 µM (HepG2 cells): 37.6%

OC[C@H]1OC(O)[C@H](n2cc(CC3CCCCC3)nn2)[C@@H](O)[C@@H]1O (stereo partly drawn) [Example 64, (3R,4R,5S,6R)-3-[4-(Cyclohexylmethyl)triazol-1-yl]-6-(hydroxymethyl)tetrahydropyran-2,4,5-triol]
inhibition at 100 µM (HepG2 cells): 8.86%

CCCCCc1cn([C@H]2C(O)O[C@H](CO)[C@@H](O)[C@@H]2O)nn1 (stereo partly drawn) [Example 65, (3R,4R,5S,6R)-6-(Hydroxymethyl)-3-(4-pentyltriazol-1-yl)tetrahydropyran-2,4,5-triol]
inhibition at 100 µM (HepG2 cells): 7.79%

OC[C@H]1OC(O)[C@H](n2cc(CCCCl)nn2)[C@@H](O)[C@@H]1O (stereo partly drawn) [Example 66, (3R,4R,5S,6R)-3-[4-(3-Chloropropyl)triazol-1-yl]-6-(hydroxymethyl)tetrahydropyran-2,4,5-triol]
inhibition at 100 µM (HepG2 cells): 5.12%

O=[N+]([O-])c1ccc(CCCCCCCc2cn([C@H]3C(O)O[C@H](CO)[C@@H](O)[C@@H]3O)nn2)c2nonc12 (stereo partly drawn) [Example 67, (3R,4R,5S,6R)-6-(Hydroxymethyl)-3-[4-[7-(4-nitro-2,1,3-benzoxadiazol-7-yl)heptyl]triazol-1-yl]tetrahydropyran-2,4,5-triol]
inhibition at 100 µM (HepG2 cells): 25.8%

OC1O[C@H](Cn2cc(-c3ccccc3)nn2)[C@@H](O)[C@H](O)[C@H]1O (stereo partly drawn) [Example 69, (3R,4S,5S,6R)-6-[(4-Phenyltriazol-1-yl)methyl]tetrahydropyran-2,3,4,5-tetrol]
inhibition at 100 µM (HepG2 cells): 6.14%

O=[N+]([O-])c1ccc(NCc2cn(C[C@H]3OC(O)[C@H](O)[C@@H](O)[C@@H]3O)nn2)c2nonc12 (stereo partly drawn) [Example 75, (3R,4S,5S,6R)-6-[[4-[[(4-Nitro-2,1,3-benzoxadiazol-7-yl)amino]methyl]triazol-1-yl]methyl]tetrahydropyran-2,3,4,5-tetrol]
inhibition at 100 µM (HepG2 cells): 31.2%

O=[N+]([O-])c1ccc(NCc2cn([C@@H]3O[C@H](CO)[C@@H](O)[C@H](O)[C@H]3O)nn2)c2nonc12 [Example 88, (2R,3S,4S,5R,6R)-2-(Hydroxymethyl)-6-[4-[[(4-nitro-2,1,3-benzoxadiazol-7-yl)amino]methyl]triazol-1-yl]tetrahydropyran-3,4,5-triol]
inhibition at 100 µM (HepG2 cells): 31.4%

O=[N+]([O-])c1ccc(NCCCCCCc2cn([C@@H]3O[C@H](CO)[C@@H](O)[C@H](O)[C@H]3O)nn2)c2nonc12 [Example 92, (2R,3S,4S,5R,6R)-2-(Hydroxymethyl)-6-[4-[6-[(4-nitro-2,1,3-benzoxadiazol-7-yl)amino]hexyl]triazol-1-yl]tetrahydropyran-3,4,5-triol]
inhibition at 100 µM (HepG2 cells): 23.1%

OC1O[C@H](CN2CCN(c3ccc(Cl)cc3)CC2)[C@H](O)[C@H](O)[C@H]1O (stereo partly drawn) [Example 102, (3R,4S,5R,6R)-6-[[4-(4-Chlorophenyl)piperazin-1-yl]methyl]tetrahydropyran-2,3,4,5-tetrol]
Fluorescence intensity of 6-NBD-Glc in competition with Example 102 [25 μM] (erythrocytes; 0 min, competition with 6-NBD-Glc): 0 AU
Fluorescence intensity of 6-NBD-Glc in competition with Example 102 [25 μM] (erythrocytes; 15 min, competition with 6-NBD-Glc): 4.9 AU
Fluorescence intensity of 6-NBD-Glc in competition with Example 102 [25 μM] (erythrocytes; 30 min, competition with 6-NBD-Glc): 11.1 AU
Fluorescence intensity of 6-NBD-Glc in competition with Example 102 [25 μM] (erythrocytes; 60 min, competition with 6-NBD-Glc): 12.5 AU
Fluorescence intensity of 6-NBD-Glc in competition with Example 102 [25 μM] (erythrocytes; 90 min, competition with 6-NBD-Glc): 19.3 AU
Fluorescence intensity of 6-NBD-Glc in competition with Example 102 [25 μM] (erythrocytes; 120 min, competition with 6-NBD-Glc): 25.1 AU
Fluorescence intensity of 6-NBD-Glc in competition with Example 102 [25 μM] (erythrocytes; 180 min, competition with 6-NBD-Glc): 32.1 AU
Slope of fluorescence intensity vs time in comparison to control (erythrocytes; competition with 6-NBD-Glc): clear increase in the slope
